Test results reported in the supplement of paper PMC10307832.

Columns and labels:
Assay in all cases: relative viability (nuclei count vs DMSO), 5 days (fraction); higher = more cells survive
[1] = compound: Cc1ccc(NC(=O)c2ccc(CN3CCN(C)CC3)cc2)cc1Nc1nccc(-c2cccnc2)n1 [Imatinib] + CCNC(=O)c1noc(-c2cc(C(C)C)c(O)cc2O)c1-c1ccc(CN2CCOCC2)cc1 [Luminespib] (partner 0.01 µM)
Procedure, shortened: (§1)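 Lung cancer cell lines were seeded in 1536-well plates and dosed by pin tool the next day, with either a single drug or a fixed anchor-drug dose combined with five library-drug doses (not always all listed) spaced in √10 steps. Five days later, one step fixed the cells and stained their nuclei (final 0.05% Triton X-100, 1% formaldehyde, 1 ug/ml Hoechst), and nuclei were counted on 4× images. Relative viability is the nuclei count in treated wells divided by the count in vehicle wells, and each value is the median of duplicate plates.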

[2] = compound: Cc1ccc(NC(=O)c2ccc(CN3CCN(C)CC3)cc2)cc1Nc1nccc(-c2cccnc2)n1 [Imatinib] + C[C@]1(O)C[C@@H](c2nc(-c3ccc4ccc(-c5ccccc5)nc4c3)c3c(N)nccn32)C1 [Linsitinib] (partner 1 µM)
Procedure, shortened: as §1

[3] = compound: Cc1ccc(NC(=O)c2ccc(CN3CCN(C)CC3)cc2)cc1Nc1nccc(-c2cccnc2)n1 [Imatinib] + NC(=O)Nc1cc(-c2cccc(F)c2)sc1C(=O)N[C@H]1CCCNC1 [AZD7762] (partner 0.2 µM)
Procedure, shortened: as §1

[4] = compound: Cc1ccc(NC(=O)c2ccc(CN3CCN(C)CC3)cc2)cc1Nc1nccc(-c2cccnc2)n1 [Imatinib] + CC(C)C[C@H](NC(=O)[C@H](Cc1ccccc1)NC(=O)c1cnccn1)B(O)O [Bortezomib] (partner 0.002 µM)
Procedure, shortened: as §1

Cell Line | relative viability ([1]; first compound 0.02 µM) | relative viability ([1]; first compound 0.06325 µM) | relative viability ([1]; first compound 0.6325 µM) | relative viability ([1]; first compound 2 µM) | relative viability ([2]; first compound 0.02 µM) | relative viability ([2]; first compound 0.2 µM) | relative viability ([2]; first compound 0.6325 µM) | relative viability ([2]; first compound 2 µM) | relative viability ([3]; first compound 0.02 µM) | relative viability ([3]; first compound 0.06325 µM) | relative viability ([3]; first compound 0.2 µM) | relative viability ([3]; first compound 0.6325 µM) | relative viability ([3]; first compound 2 µM) | relative viability ([4]; first compound 0.02 µM) | relative viability ([4]; first compound 0.06325 µM) | relative viability ([4]; first compound 0.2 µM) | relative viability ([4]; first compound 0.6325 µM) | relative viability ([1]; first compound 0.2 µM) | relative viability ([2]; first compound 0.06325 µM) | relative viability ([4]; first compound 2 µM)
NCI-H1944 | 0.831 | 0.655 | 0.665 | 0.787 | 1.21 | 1.12 | 1.07 | 1.18 | 0.628 | 0.556 | 0.452 | 0.37 | 0.423 | – | – | – | – | – | – | –
COR-L 105 | 0.696 | – | 0.632 | 0.732 | 1.08 | 1 | 1.02 | 0.978 | – | – | – | – | – | 1.08 | 0.871 | 0.73 | 0.636 | 0.844 | 1.14 | –
NCI-H1648 | – | – | – | – | – | – | – | – | 0.723 | 0.732 | 0.686 | 0.642 | 0.526 | – | – | – | – | – | – | –
RERF-LC-KJ | 1.27 | 1.3 | 1.03 | 1.31 | 0.879 | 1.03 | 0.872 | 0.94 | 1.01 | 0.523 | 1.19 | 0.88 | 0.967 | 1.13 | 1.1 | 1.32 | – | 1.3 | 1.08 | 0.909
NCI-H3122 | 0.0854 | 0.0818 | 0.126 | 0.076 | 1 | 1.14 | 1.03 | 1.04 | – | – | 1.07 | 0.926 | 1.05 | 0.985 | 1.06 | 1.04 | 0.96 | 0.112 | 1.13 | 1.05
LU99A | 0.276 | 0.247 | 0.219 | 0.245 | 0.53 | 0.654 | 0.611 | 0.615 | 0.437 | 0.274 | 0.336 | 0.254 | 0.405 | 1.34 | 1.19 | 1.08 | 1.23 | 0.227 | 0.543 | 1.03
ChaGo-K-1 | 0.585 | 0.592 | 0.624 | 0.56 | – | – | – | – | 0.979 | – | 0.941 | 0.791 | 0.943 | 0.975 | 1.37 | 1.01 | 1.15 | 0.603 | – | –
HOP-62 | 1.06 | 0.84 | 0.886 | – | 1.12 | – | 0.953 | 0.857 | 0.532 | – | 0.707 | 0.504 | 0.687 | 1.14 | – | 1.19 | 0.732 | 1.03 | – | 0.598
COR-L23 | 0.806 | 0.709 | 0.802 | 0.654 | 1.14 | 1.18 | 0.895 | 1.04 | – | – | – | – | – | 1.38 | 1.03 | 1.2 | 1.18 | 0.79 | 1.01 | 0.947
SK-MES-1 | 0.906 | – | 0.714 | 0.873 | 1.07 | 1.23 | 1.06 | 1.19 | – | – | – | – | – | – | – | – | – | 0.804 | 1.19 | –
NCI-H2170 | 0.901 | 0.395 | 0.502 | 0.735 | – | – | – | – | 0.94 | 0.77 | 0.86 | 0.745 | 0.773 | – | – | – | – | 0.526 | – | –
